Read-outs that look alike come from different tables or passages of the source. Values belong to the compound of their own block, whether it stands above or below them. Where a SMILES comes first, the peptide text is derived from it. Bridges are numbered along the chain shown (N, C = ends).
Legend:
patients with HRS-1 [1] = assay: ACLF grade and respiratory failure with terlipressin, double-blind placebo-controlled trial (Example 3); format: in vivo, human
Procedure: In FIG. 6B, the incidence of respiratory failure was based on CLIF-SOFA score definition of respiratory failure.
The study was a double-blind placebo-controlled trial. […] HRS-1 was defined as rapidly rising serum creatinine (SCr) to ≥2.25 mg/dl in <14 days without response to volume challenge or evidence of structural renal disease.
All patients were assessed for organ failure (OF) per EASL-CLIF criteria and then classified into grades of acute-on-chronic liver failure (ACLF). All patients had at minimum grade 1 ACLF due to the presence of HRS-1; grades 2 and 3 ACLF represent 2 or 3 OFs respectively. Patients were separated into into grade≤2 and grade 3 ACLF subgroups.

QTc interval = assay: Cardiac electrophysiology in 41 patients with HRS-1; format: in vivo, human; conditions: 1 mg terlipressin acetate every 6 hours up to 14 days; Fridericia correction
From the text: Increases of the mean QTc interval of <10 ms were reported.

CYP enzymes = assay: CYP inhibition and induction in human liver microsomes; format: in vitro ADME
From the text: (§1) No significant drug-drug interactions are anticipated with terlipressin (TERLIVAZ).

[2] = test system: human ABC and SLC transporters; assay: Transporter inhibition and substrate studies; format: in vitro ADME
From the text: as §1

[3] = Metabolism in blood or plasma
From the text: Once formed, lysine-vasopressin is metabolized by body tissue via various peptidase-mediated routes.

pregnant guinea pigs = conditions: doses lower than the maximum recommended human dose of 4 mg/day; cited from earlier work
rabbits = conditions: increased resorptions, implantation loss, fetal anomalies and deformities; cited from earlier work
patients = conditions: voluntary reports; cited from earlier work
pregnant women = conditions: single intravenous or intranasal dose, first trimester; cited from earlier work
[4] = background statement; cited from earlier work
mouse = assay: In vivo mouse micronucleus assay
bacterial = assay: In vitro bacterial reverse mutation assay
[5] = Pharmacokinetics and excretion in healthy subjects
mammalian cell (CHO) = assay: In vitro mammalian cell (CHO) chromosome aberration assay
[6] = Pharmacokinetic modeling with sparse PK samples from 69 patients with HRS-1; conditions: for AUC(0-t) / Cmax: iv
patients with HRS-1 [7] = assay: CONFIRM randomized, placebo-controlled, double-blind study of terlipressin plus albumin; conditions: for between-group difference in the incidence of respiratory failure SAEs / between-group difference in the incidence of respiratory failure fatal AEs: terlipressin minus placebo
Procedure: In particular, HRS-1 was defined based on modified prior criteria outlined by the International Club of Ascites (ICA), as rapidly deteriorating renal function to SCr≥2.25 mg/dl, with actual or projected doubling of SCr within 2 weeks, without improvement in renal function (<20% decrease in SCr 48 hours after both diuretic withdrawal and albumin-fluid challenge) in adult patients with cirrhosis and ascites. […] Treatment was continued to Day 14 unless the following occurred: verified HRS reversal (VHRSR), renal replacement therapy (RRT), liver transplantation (LT) or SCr at or above baseline (BL) at Day 4. VHRSR, the primary endpoint, was defined as 2 consecutive SCr values≤1.5 mg/dl, at least 2 hours apart, with subjects alive without RRT for at least 10 days after the second SCr≤1.5 mg/dL; HRS reversal (HRSR) was a decrease in SCr to ≤1.5 mg/dL. Secondary end points included HRS reversal (any SCr value 1.5 mg/dL or less during treatment), HRS reversal without RRT by day 30, HRS reversal in patients with systemic inflammatory response syndrome, and verified HRS reversal without recurrence by day 30.
The patients were at least 18 years of age, with cirrhosis, ascites, and rapidly progressive renal failure, with a SCr doubling to at least 2.25 mg/dL within 14 days. Major exclusion criteria included SCr of greater than 7.0 mg/dL, one or more large-volume paracenteses of 4 L or more within 2 days of randomization, evidence of parenchymal renal diseases or obstructive uropathy, or presence of sepsis and/or uncontrolled bacterial infection. Patients with severe cardiovascular disease or recent (within 4 weeks) renal replacement therapy (RRT) were excluded.
300 subjects were enrolled in the study. […] Patients were stratified by qualifying SCr (less than 3.4 mg/dL or 3.4 mg/dL or greater) and pre-enrollment large-volume paracentesis (at least one single event of 4 L or greater, or less than 4 L within 3 to 14 days prior to randomization).
A baseline SCr value was assessed before the patients received the assigned treatment. […] In keeping with current guidelines, it was strongly recommended that albumin (1 g/kg to a maximum of 100 g, on day 1 and 20 to 40 g/day thereafter) be administered to all subjects. If SCr decreased <30% from the baseline value on Day 4, after a minimum of 10 doses of study drug, dose increase to 2 mg every 6 hours (±30 minutes) (8 mg/day) was mandated, except in subjects with coronary artery disease or in the setting of circulatory overload, pulmonary edema, or bronchospasm. Dose resumption was permitted after interruption for adverse events except for cardiac or mesenteric ischemia, for which treatment was permanently discontinued.
The primary efficacy end point was the incidence of verified HRS reversal, defined as the percentage of patients with two consecutive SCr values no greater than 1.5 mg/dl at least 2 hours apart, while remaining alive without RRT for at least 10 days after achieving verified HRS reversal, while excluding SCr values after RRT, transjugular intrahepatic portosystemic shunt, liver transplant, or open-label vasopressor from primary end point analysis.
Secondary efficacy end points included incidence of HRS reversal, defined as the percentage of patients with an on-treatment SCr value of 1.5 mg/dl or less; durability of HRS reversal, defined as the percentage of patients with HRS reversal without RRT to day 30; incidence of HRS reversal among patients with systemic inflammatory response syndrome; and incidence of verified HRS reversal without HRS recurrence by day 30.

[8] = human, in vivo
clinical = conditions: human, in vivo; for AUC(0-t) / Cmax: iv

SMILES: NCCCC[C@H](NC(=O)[C@@H]1CCCN1C(=O)[C@@H]1CSSC[C@H](NC(=O)CNC(=O)CNC(=O)CN)C(=O)N[C@@H](Cc2ccc(O)cc2)C(=O)N[C@@H](Cc2ccccc2)C(=O)N[C@@H](CCC(N)=O)C(=O)N[C@@H](CC(N)=O)C(=O)N1)C(=O)NCC(N)=O [Terlipressin, N—[N—(N-glycylglycyl)glycyl]-8-L-lysinevasopressin] (H-GGGCYFQNCPKG-NH2; disulfide 4-9 (inferred))
percent of patients with respiratory failure (patients with HRS-1 [1]; ACLF 3, FIG. 6C, investigator reported): much higher than placebo
incidence of respiratory failure, baseline to end of treatment (patients with HRS-1 [1]; FIGS. 6A-6B, CLIF-SOFA definition): increased incidence of respiratory failure
Increases of the mean QTc interval (QTc interval): < 10 ms
QTc changes from baseline (QTc interval): No clinically meaningful changes from baseline
direct-, time-, or metabolism dependent inhibitor and inducer of CYP enzymes (CYP enzymes): little or no evidence
inhibitor and substrate of human ABC and SLC transporters [2]: little or no evidence
metabolism in blood or plasma [3]: not metabolized in blood or plasma
reproductive toxicity finding (pregnant guinea pigs): marked decrease in blood flow to the uterus and placenta
reproductive toxicity finding (rabbits): embryotoxic and teratogenic
Adverse reactions reported from postmarketing experience (patients): headache hyponatremia, skin necrosis and gangrene
effect in pregnancy (pregnant women): induced uterine contractions and endometrial ischemia
duration of action [4]: 2 to 10 h
half-life [4]: 6 h
mutagenicity / clastogenicity (mouse): not mutagenic or clastogenic
mutagenicity / clastogenicity (bacterial): not mutagenic or clastogenic
dose-dependent changes in the elimination rate constant [5]: no dose-dependent changes
pharmacokinetic linearity [5]: linear pharmacokinetics
mutagenicity / clastogenicity (mammalian cell (CHO)): not mutagenic or clastogenic
median Cave at steady state ([6]; 1 mg IV injection of terlipressin acetate): 14.2 ng/mL
mean Cave ([6]; 1 mg dose of terlipressin acetate IV): about 14.2 ng/ml
Vd ([6]; human, in vivo): 6.3 L
clearance ([6]; human, in vivo, 1 mg, clearance (derived typical population PK parameter), 1 mg terlipressin acetate): 457 mL/min
clearance ([6]; human, in vivo, clearance, typical population PK parameter (range)): 413 to 518 mL/min
AUC(0-t) ([6]; human, in vivo, 1 mg, AUC24h (range), 1 mg dose of terlipressin acetate IV): 61.2 to 246 ng·h/mL
Cmax ([6]; human, in vivo, 1 mg, Cmax (range), 1 mg dose of terlipressin acetate IV): 37.1 to 143 ng/mL
AUC(0-t) ([6]; human, in vivo, 1 mg, mean AUC24h, 1 mg dose of terlipressin acetate IV): ~123 ng·h/mL
Cmax ([6]; human, in vivo, 1 mg, mean Cmax, 1 mg dose of terlipressin acetate IV): ~70.5 ng/mL
AUC(0-t) ([6]; human, in vivo, 1 mg, median AUC24h at steady state, 1 mg IV injection of terlipressin acetate): 123 ng·h/mL
Cmax ([6]; human, in vivo, 1 mg, median Cmax at steady state, 1 mg IV injection of terlipressin acetate): 70.5 ng/mL
half-life ([6]; human, in vivo, terminal half-life): ~0.9 h
Treatment discontinuation due to adverse events (patients with HRS-1 [7]; 24/200 patients): 12.0%
most common adverse events that led to discontinuation (patients with HRS-1 [7]; in vivo): respiratory failure, abdominal pain, and intestinal ischemia/obstruction
subjects listed at baseline who did not receive a transplant and died by Day 90 (pre-transplant mortality) (patients with HRS-1 [7]; mitigated population, 4 subjects): 11.4%
AE leading to death up to 30 days post-treatment: Respiratory failure (patients with HRS-1 [7]; mitigated population, N = 132): 5.3 % of Subjects
Any AE leading to death up to 30 days post-treatment (patients with HRS-1 [7]; mitigated population, N = 132): 34.1 % of Subjects
Death by Day 30 (patients with HRS-1 [7]; mitigated population, N = 132): 31.8 % of Subjects
Death by Day 60 (patients with HRS-1 [7]; mitigated population, N = 132): 40.2 % of Subjects
Death by Day 90 (patients with HRS-1 [7]; mitigated population, N = 132): 44.7 % of Subjects
Serior Adverse Events (patients with HRS-1 [7]; mitigated population, N = 132): 61.4 % of Subjects
Serious adverse events: Respiratory failure (patients with HRS-1 [7]; mitigated population, N = 132): 9.8 % of Subjects
Any AE leading to death up to 30 days post-treatment (patients with HRS-1 [7]; mitigated population, N = 132, listed as terlipressin): 31.8 % of Subjects
subjects listed at baseline who did not receive a transplant and died by Day 90 (pre-transplant mortality) (patients with HRS-1 [7]; overall population, 12 subjects): 21.4%
AE leading to death up to 30 days post-treatment: Respiratory failure (patients with HRS-1 [7]; overall population, N = 200): 8.5 % of Subjects
Any AE leading to death up to 30 days post-treatment (patients with HRS-1 [7]; overall population, N = 200): 41.5 % of Subjects
Death by Day 30 (patients with HRS-1 [7]; overall population, N = 200): 39.0 % of Subjects
Death by Day 60 (patients with HRS-1 [7]; overall population, N = 200): 47.0 % of Subjects
Death by Day 90 (patients with HRS-1 [7]; overall population, N = 200): 51.0 % of Subjects
Serior Adverse Events (patients with HRS-1 [7]; overall population, N = 200): 65.0 % of Subjects
Serious adverse events: Respiratory failure (patients with HRS-1 [7]; overall population, N = 200): 13.5 % of Subjects
Any AE leading to death up to 30 days post-treatment (patients with HRS-1 [7]; overall population, N = 200, listed as terlipressin): 39.0 % of Subjects
Adverse reaction: Abdominal pain (patients with HRS-1 [7]; patients (percent), N = 200): 39 (19.5)
Adverse reaction: Bradycardia (patients with HRS-1 [7]; patients (percent), N = 200): 10 (5.0)
Adverse reaction: Diarrhea (patients with HRS-1 [7]; patients (percent), N = 200): 26 (13.0)
Adverse reaction: Dyspnea (patients with HRS-1 [7]; patients (percent), N = 200): 25 (12.5)
Adverse reaction: Fluid overload (patients with HRS-1 [7]; patients (percent), N = 200): 17 (8.5)
Adverse reaction: Nausea (patients with HRS-1 [7]; patients (percent), N = 200): 32 (16.0)
Adverse reaction: Pleural effusion (patients with HRS-1 [7]; patients (percent), N = 200): 11 (5.5)
Adverse reaction: Respiratory failure (patients with HRS-1 [7]; patients (percent), N = 200): 31 (15.5)
Adverse reaction: Sepsis (patients with HRS-1 [7]; patients (percent), N = 200): 11 (5.5)
Adverse reaction: Ischemia-related events (patients with HRS-1 [7]; patients (percent), N = 200, skin discoloration, cyanosis, ischemia and intestinal ischemia): 9 (4.5)
serious or fatal respiratory failure (patients with HRS-1 [7]; primary clinical trial): 14%
between-group difference in the incidence of respiratory failure SAEs (patients with HRS-1 [7]; mitigated population): 2.8%
between-group difference in the incidence of respiratory failure fatal AEs (patients with HRS-1 [7]; mitigated population): 3.9%
between-group difference in the incidence of respiratory failure fatal AEs (patients with HRS-1 [7]; overall population): 7.5%
between-group difference in the incidence of respiratory failure SAEs (patients with HRS-1 [7]; overall study population): 8.4%

pharmacokinetic linearity [8]: linear pharmacokinetics
Vd (clinical): 1370 L
clearance (clinical; 1 mg, clearance (derived typical population PK parameter)): 5300 mL/min
clearance (clinical; clearance, typical population PK parameter (range)): 4720 to 6050 mL/min
AUC(0-t) (clinical; 1 mg, AUC24h (range)): 3.78 to 33.5 ng·h/mL
Cmax (clinical; 1 mg, Cmax (range)): 0.4 to 3.36 ng/mL
AUC(0-t) (clinical; 1 mg, mean AUC24h): 11.2 ng·h/mL
Cmax (clinical; 1 mg, mean Cmax): ~1.2 ng/mL
AUC(0-t) (clinical; 1 mg, median AUC24h at steady state): 11.2 ng·h/mL
Cmax (clinical; 1 mg, median Cmax at steady state): 1.2 ng/mL
half-life (clinical; terminal half-life): ~3 h
SMILES: NCCCC[C@H](NC(=O)[C@@H]1CCCN1C(=O)[C@@H]1CSSC[C@H](N)C(=O)N[C@@H](Cc2ccc(O)cc2)C(=O)N[C@@H](Cc2ccccc2)C(=O)N[C@@H](CCC(N)=O)C(=O)N[C@@H](CC(N)=O)C(=O)N1)C(=O)NCC(N)=O [lysine-vasopressin]

SMILES: NC(=O)CC[C@@H]1NC(=O)[C@H](Cc2ccccc2)NC(=O)[C@H](Cc2ccc(O)cc2)NC(=O)[C@@H](N)CSSC[C@@H](C(=O)N2CCC[C@H]2C(=O)N[C@@H](CCCN=C(N)N)C(=O)NCC(N)=O)NC(=O)[C@H](CC(N)=O)NC1=O [vasopressin]
duration of action [4]: 0.5 to 1 h
half-life [4]: 0.1 h
